# Source: patent US9796700B2 (Celgene CAR LLC, priority 2013, dated 2017)
# Read-outs that look alike come from different tables or passages of the source.
# Columns and labels:
# MEK1 activated ERK1 = MEK1 activated ERK1 (Homo sapiens (Human), UniProt P27361); assay: Omnia continuous-read kinase assay for potency against MEK1 activated ERK1; format: biochemical; details: MEK1 activated ERK1, WT, ATP at KM
# How it was run: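 Apparent IC50 came from initial reaction slopes (RFU vs time) plotted against log inhibitor with a variable-slope fit. Reactions were started with ERK1 (4 nM final) added to 50 μM ATP, roughly at its appKM, and 10 μM Sox-conjugated ST17 peptide in 20 mM Tris pH 7.5, 5 mM MgCl2. Fluorescence was monitored every 71 seconds.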
# Erk1 = Erk1 (Homo sapiens (Human), UniProt P27361); assay: Protein Mass Modification Assay (intact protein MALDI); format: binding
# How it was run: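 Human Erk1 was incubated 60 min at room temperature with a 10-fold molar excess of compound, then analysed as intact protein by MALDI with sinapinic acid matrix. The centroid mass shift versus untreated protein was divided by compound molecular weight to give percent modified protein.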
# [1] = system: ERK1 phosphorylation of its substrate RSK in HT29 cells; assay: pRSK MSD Assay in HT29 cells; format: cell-based
# Description: The protocol below describes an assay to measure the kinase activity of ERK1 to phosphorylate its substrate, RSK, in the presence of a test compound. This experiment was conducted using a Mesoscale Discovery plate. The day before the assay, HT29 cells were split and plated at 50,000 cells/well in complete growth media. After allowing cells to adhere, the media was removed and replaced with media containing 0.1% FBS and incubated overnight. Blank MDS plates were coated with 25 μl/well RSK capture antibody and incubated at 4° C. overnight. The next day, the media was removed and replaced with 100 μl of media containing a test compound and incubated for 120 minutes at 37° C. The media was removed and replaced with 55 μl of well lysis buffer with protease and phosphatase inhibitors provided in the kit, followed by incubation at 4° C. for 30 minutes. 50 μl of lysate was transferred to a blocked MSD plate, followed by incubation at room temperature for 2 hours under constant shaking. The plate was washed 3 times with MSD wash buffer (cat#R617TX), and 25 μl/well phospho-RSK (pRSK) detection antibody was added with an appropriate Sulfo-tagged anti-species detection antibody diluted in 1% BSA in MSD wash buffer. This mixture was incubated for 1 hour at room temperature under constant shaking. The plate was washed 3 times, and 150 μl 1×MSD read buffer was added, followed by signal detection in an MSD plate reader.
# [2] = Homo sapiens, HT-29, HT29 cells, read-out: ERK1 PRSK MSD HT29 EC50
# [3] = HT29 cells, read-out: ERK1 PRSK MSD HT29 EC50
# [4] = Homo sapiens, HT-29, read-out: ERK1 PRSK MSD HT29 EC50 (nM)
# Erk1, sequence (P27361 whole entry, looked up): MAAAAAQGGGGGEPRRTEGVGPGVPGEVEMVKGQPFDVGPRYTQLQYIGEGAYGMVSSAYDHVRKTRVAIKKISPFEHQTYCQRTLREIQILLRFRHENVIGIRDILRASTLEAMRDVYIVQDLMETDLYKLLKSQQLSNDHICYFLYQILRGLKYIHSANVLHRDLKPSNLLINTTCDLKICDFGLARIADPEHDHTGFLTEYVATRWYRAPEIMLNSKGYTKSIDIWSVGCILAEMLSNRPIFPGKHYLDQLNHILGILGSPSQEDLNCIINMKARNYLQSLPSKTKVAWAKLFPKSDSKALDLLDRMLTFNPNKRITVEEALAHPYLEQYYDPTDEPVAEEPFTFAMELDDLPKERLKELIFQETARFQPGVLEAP
# MEK1 activated ERK1, sequence (P27361 whole entry): as the sequence (P27361 whole entry, looked up) above
SMILES,IC50 (MEK1 activated ERK1) [µM],ERK1 Mass Mod (%) (Erk1),"EC50 [1, 2] [nM]","EC50 [1, 3] [nM]","EC50 [1, 4] [nM]"
"C=CC(=O)Nc1cc(Cl)ccc1Nc1nc(Nc2cc(OC)ncc2C)ncc1Cl [Compound I-248, N-(5-chloro-2-((5-chloro-2-((2-methoxy-5-methylpyridin-4-yl)amino)pyrimidin-4-yl)amino)phenyl)acrylamide]",< 0.1,E (provided a mass modification of ≧70%),101 to 500,,
"C=CC(=O)Nc1ccccc1Nc1nc(N[C@H]2CC[C@@H](F)CC2)ncc1C(F)(F)F [Compound I-110, N-(2-((2-(cis-(4-fluorocyclohexyl)amino)-5-(trifluoromethyl)pyrimidin-4-yl)amino)phenyl)acrylamide]",0.101 to 0.5,E (provided a mass modification of ≧70%),101 to 500,,
"CC(C)=CC(=O)c1ccccc1Oc1nc(Nc2ccc(F)cc2C)ncc1C(N)=O [Compound I-272, 2-((4-fluoro-2-methylphenyl)amino)-4-(2-(3-methylbut-2-enoyl)phenoxy)pyrimidine-5-carboxamide]",> 1,G (proived a mass modification ≦30%),> 1000,,
"C=CC(=O)Nc1ccccc1Nc1nc(N[C@H]2CC[C@@H](O)CC2)ncc1C(F)(F)F [Compound I-109, N-(2-((2-(cis-(4-hydroxycyclohexyl)amino)-5-(trifluoromethyl)pyrimidin-4-yl)amino)phenyl) acrylamide]",,E (provided a mass modification of ≧70%),,> 1000,
"C=CC(=O)Nc1cc(C)ccc1Nc1nc(Nc2nc(OC)ncc2Cl)ncc1C(F)(F)F [Compound I-344, N-(2-((2-((5-chloro-2-methoxypyrimidin-4-yl)amino)-5-(trifluoromethyl)pyrimidin-4-yl)amino)-5-methylphenyl)acrylamide]",< 0.1,E (provided a mass modification of ≧70%),< 100,,
C=CC(=O)Nc1ccccc1Nc1nc(N[C@H]2CC[C@H](O)CC2)ncc1Cl [Compound I-101],,E (provided a mass modification of ≧70%),101 to 500,,
"C=CC(=O)Nc1ccccc1Nc1nc(N[C@H]2CC[C@H](F)CC2)ncc1C(F)(F)F [Compound I-111, N-(2-((2-(trans-(4-fluorocyclohexyl)amino)-5-(trifluoromethyl)pyrimidin-4-yl)amino)phenyl)acrylamide]",0.101 to 0.5,E (provided a mass modification of ≧70%),,101 to 500,
"C=CC(=O)Nc1cc(C)ccc1Nc1nc(Nc2cc(OC)ncn2)ncc1C(F)(F)F [Compound I-348, N-(2-((2-((6-methoxypyrimidin-4-yl)amino)-5-(trifluoromethyl)pyrimidin-4-yl)amino)-5-methylphenyl)acrylamide]",> 1,G (proived a mass modification ≦30%),501 to 999,,
"CCC(=O)Nc1cc(C)ccc1Nc1nc(Nc2cc(OC)ncc2C)ncc1C(F)(F)F [Compound I-352, N-(2-((2-((2-methoxy-5-methylpyridin-4-yl)amino)-5-(trifluoromethyl)pyrimidin-4-yl)amino)-5-methylphenyl)propionamide]",> 1,G (proived a mass modification ≦30%),> 1000,,
C=CC(=O)Nc1ccccc1Nc1nc(Nc2cc(OC)nc(N3CCN(C(C)=O)CC3)c2)ncc1C(F)(F)F [Compound I-92],,E (provided a mass modification of ≧70%),< 100,,
"C=CC(=O)Nc1ccccc1Nc1nc(Nc2cc(OC)nc(N3CCN(C)CC3)c2)ncc1C(F)(F)F [Compound I-324, N-(2-((2-((2-methoxy-6-(4-methylpiperazin-1-yl)pyridin-4-yl)amino)-5-(trifluoromethyl)pyrimidin-4-yl)amino)phenyl)acrylamide]",< 0.1,E (provided a mass modification of ≧70%),101 to 500,,
"CCC(=O)Nc1ccccc1Nc1nc(Nc2ccc(N(CC)C(C)=O)cc2C#N)ncc1Cl [Compound I-316, N-(2-((5-chloro-2-((2-cyano-4-(N-ethylacetamido)phenyl)amino)pyrimidin-4-yl)amino)phenyl)propionamide]",> 1,,> 1000,,
"C=CC(=O)Nc1ccccc1Nc1nc(NC2CCC(=O)CC2)ncc1C(F)(F)F [Compound I-23, N-(2-((2-((4-Oxocyclohexyl)amino)-5-(trifluoromethyl)pyrimidin-4-yl)amino)phenyl)acrylamide]",< 0.1,E (provided a mass modification of ≧70%),101 to 500,,
"C=CC(=O)Nc1ccccc1Nc1nc(N[C@H]2CC[C@H](O)CC2)ncc1C(F)(F)F [Compound I-1, Trans-N-(2-((2-((4-hydroxycyclohexyl)amino)-5-(trifluoromethyl)pyrimidin-4-yl)amino)phenyl)acrylamide]",,G (proived a mass modification ≦30%),,101 to 500,
"C=C(C)S(=O)(=O)Nc1cc(F)ccc1Nc1nc(Nc2cc(C(N)=O)ccc2C)ncc1C(F)(F)F [Compound I-87, 3-((4-((4-Fluoro-2-(1-methylvinylsulfonamido)phenyl)amino)-5-(trifluoromethyl)pyrimidin-2-yl)amino)-4-methylbenzamide]",,G (proived a mass modification ≦30%),101 to 500,,
"C=CC(=O)Nc1ccccc1Nc1nc(N[C@H]2CC[C@H](C(N)=O)CC2)ncc1C(F)(F)F [Compound I-16, 4-((4-((2-acrylamidophenyl)amino)-5-(trifluoromethyl)pyrimidin-2-yl)amino) -trans-cyclohexanecarboxamide]",,E (provided a mass modification of ≧70%),501 to 999,,
"C=CC(=O)Nc1ccccc1Nc1nc(N[C@@H]2CCC[C@H](C(=O)O)C2)ncc1Cl (racemic) [Compound I-133, Rac-3-((4-((2-acrylamidophenyl)amino)-5-chloropyrimidin-2-yl)amino)-cis-cyclohexanecarboxylic acid]",,E (provided a mass modification of ≧70%),> 1000,,
C=CC(=O)Nc1cc(C)ccc1Nc1nc(Nc2cc(OC)nc(OC)c2)ncc1C(F)(F)F [Compound I-96],,E (key: E: provided a mass modification of ≧70%; F: provided a mass modification of 31-69%; G: proived a mass modification ≦30%),,,< 100
"C=CC(=O)Nc1cc(C)ccc1Nc1nc(Nc2cc(C(C)=O)ccc2C)ncc1C(F)(F)F [Compound I-84, N-(2-((2-((5-Acetyl-2-methylphenyl)amino)-5-(trifluoromethyl)pyrimidin-4-yl)amino)-5-methylphenyl)acrylamide]",,E (key: E: provided a mass modification of ≧70%; F: provided a mass modification of 31-69%; G: proived a mass modification ≦30%),,,101 to 500
"C=CC(=O)Nc1ccccc1Nc1nc(Nc2cncc(C(N)=O)c2)ncc1C(F)(F)F [Compound I-63, 5-((4-((2-Acrylamidophenyl)amino)-5-(trifluoromethyl)pyrimidin-2-yl)amino)nicotinamide]",,E (provided a mass modification of ≧70%),101 to 500,,
"C=CC(=O)Nc1cc(C)ccc1Nc1nc(N[C@H]2CCN(S(=O)(=O)C=C)C2)ncc1C(F)(F)F [Compound I-279, (S)—N-(5-Methyl-2-((5-(trifluoromethyl)-2-((1-(vinylsulfonyl)pyrrolidin-3-yl)amino)pyrimidin-4-yl)amino)phenyl)acrylamide]",,E (provided a mass modification of ≧70%),> 1000,,
"C=CC(=O)Nc1cc(C)ccc1Nc1nc(N[C@H]2CCCN(C(=O)CO)C2)ncc1C(F)(F)F [Compound I-20, (S)—N-(2-((2-((1-(2-Hydroxyacetyl)piperidin-3-yl)amino)-5-(trifluoromethyl)pyrimidin-4-yl)amino)-5-methylphenyl)acrylamide]",< 0.1,E (provided a mass modification of ≧70%),,,
"C=CC(=O)Nc1cc(C)ccc1Nc1nc(Nc2nc(OC)ccc2Cl)ncc1C(F)(F)F [Compound I-360, N-(2-((2-((3-chloro-6-methoxypyridin-2-yl)amino)-5-(trifluoromethyl)pyrimidin-4-yl)amino)-5-methylphenyl)acrylamide]",> 1,E (provided a mass modification of ≧70%),,,
"C=CC(=O)Nc1ccccc1Nc1nc(Nc2cc(OC)nc(N3CCN(S(C)(=O)=O)CC3)c2)ncc1C(F)(F)F [Compound I-290, N-(2-((2-((2-Methoxy-6-(4-(methylsulfonyl)piperazin-1-yl)pyridin-4-yl)amino)-5-(trifluoromethyl)pyrimidin-4-yl)amino)phenyl)acrylamide]",> 1,E (provided a mass modification of ≧70%),,,
